Like-named read-outs stand apart in the source and are kept apart here.
Columns and labels:
Format in all cases: cell-based
HBeAg = assay: PHH HBV natural infection assay, HBeAg (alphalisa)
Method in brief: (§1)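 Primary human hepatocytes infected with HBV at 200 GE/cell plus 4% PEG8000 for 24 h, then sandwich-cultured 72 h. Compounds were added in two refreshes 72 h apart. HBsAg and HBeAg in supernatant measured by AlphaLISA.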

HBsAg = assay: PHH HBV natural infection assay, HBsAg (alphalisa)
Method in brief: as §1

[1] = tested on: primary human hepatocyte (PHH); assay: PHH natural infection assay, cytotoxicity (Cell Counting Kit-8); conditions: HBV-infected primary human hepatocytes, CCK8, end of treatment
Method in brief: (§2)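 HBV-infected at 200 GE/cell with 4% PEG8000 for 24 h, then sandwich-cultured 72 h in 1% DMSO and 0.25 mg/mL matrix gel. Compound added twice at 72-h intervals; supernatant HBsAg and HBeAg read by AlphaLISA, HBV DNA by quantitative fluorescence PCR kit. Cytotoxicity by CCK-8.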

[2] = as above; conditions: human, HBV-infected primary human hepatocytes, CCK8, end of treatment
Method in brief: as §2

[3] = read-out: HbeAg IC50, HBV-infected primary human hepatocytes, supernatant, compound medium refreshed two times with 72-hour interval
[4] = read-out: HBsAg IC50, HBV-infected primary human hepatocytes, supernatant, compound medium refreshed two times with 72-hour interval
[5] = Hepatitis B virus, Hepatocyte, 72 h, read-out: HbeAg IC50, HBV-infected primary human hepatocytes, supernatant, compound medium refreshed two times with 72-hour interval
[6] = Hepatitis B virus, Hepatocyte, 72 h, read-out: HBsAg IC50, HBV-infected primary human hepatocytes, supernatant, compound medium refreshed two times with 72-hour interval

SMILES | IC50 (HBeAg; [3]) [nM] | IC50 (HBsAg; [4]) [nM] | CC50 [1] [µM] | IC50 (HBeAg; HBV-infected primary human hepatocytes, supernatant, compound medium refreshed two times with 72-hour interval, read-out: HbeAg IC50) [nM] | IC50 (HBsAg; HBV-infected primary human hepatocytes, supernatant, compound medium refreshed two times with 72-hour interval, read-out: HBsAg IC50) [nM] | IC50 (HBeAg; [5]) [nM] | IC50 (HBsAg; [6]) [nM] | CC50 at 144 h [2] [µM]
CS(=N)(=O)c1ccc(C(=O)NC2CC3(C2)CC(c2nc4cc(Cl)ccc4o2)C3)o1 (single isomer, unassigned) [Example 52-c, N-[6-(5-chloro-1,3-benzoxazol-2-yl)spiro[3.3]heptan-2-yl]-5-(methylsulfonimidoyl)furan-2-carboxamide] | 3610 | 5040 | > 100 |  |  |  |  | 
N=S(=O)(CC1CC1)c1ccc(C(=O)NC2CC3(C2)CC(c2nc4cc(Cl)ccc4o2)C3)o1 (single isomer, unassigned) [Example 54-d, N-[6-(5-chloro-1,3-benzoxazol-2-yl)spiro[3.3]heptan-2-yl]-5-(cyclopropylmethylsulfonimidoyl)furan-2-carboxamide] | 694 | 703 | > 10 |  |  |  |  | 
N=S(=O)(CC1CC1)c1ccc(C(=O)NC2CC3(C2)CC(c2nc4cc(Cl)ccc4o2)C3)o1 (single isomer, unassigned) [Example 54-b, N-[6-(5-chloro-1,3-benzoxazol-2-yl)spiro[3.3]heptan-2-yl]-5-(cyclopropylmethylsulfonimidoyl)furan-2-carboxamide] | 166 | 285 | > 100 |  |  |  |  | 
N=S(=O)(c1ccc(C(=O)NC2CC3(C2)CC(c2nc4cc(Cl)cnc4o2)C3)o1)C1CC1 (single isomer, unassigned) [Example 64-d, N-[6-(6-chlorooxazolo[5,4-b]pyridin-2-yl)spiro[3.3]heptan-2-yl]-5-(cyclopropylsulfonimidoyl)furan-2-carboxamide] |  |  | > 10 |  |  |  |  | 
N=S(=O)(CC1CC1)c1ccc(C(=O)NC2CC3(C2)CC(c2nc4cc(Cl)ccc4o2)C3)o1 (single isomer, unassigned) [Example 54-c, N-[6-(5-chloro-1,3-benzoxazol-2-yl)spiro[3.3]heptan-2-yl]-5-(cyclopropylmethylsulfonimidoyl)furan-2-carboxamide] | 4590 | 5840 | > 10 |  |  |  |  | 
N=S(=O)(c1ccc(C(=O)NC2CC3(C2)CC(c2nc4cc(Cl)cnc4o2)C3)o1)C1CC1 (single isomer, unassigned) [Example 64-b, N-[6-(6-chlorooxazolo[5,4-b]pyridin-2-yl)spiro[3.3]heptan-2-yl]-5-(cyclopropylsulfonimidoyl)furan-2-carboxamide] | 9130 | 9460 | > 10 |  |  |  |  | 
N=S(=O)(CC1CC1)c1ccc(C(=O)NC2CC3(C2)CC(c2nc4cc(Cl)ccc4o2)C3)o1 (single isomer, unassigned) [Example 54-a, N-[6-(5-chloro-1,3-benzoxazol-2-yl)spiro[3.3]heptan-2-yl]-5-(cyclopropylmethylsulfonimidoyl)furan-2-carboxamide] | 5700 | 6060 | > 10 |  |  |  |  | 
CCC(=O)NS(=O)(=O)c1ccc(C(=O)NC2CC3(C2)CC(c2nc4cc(Cl)ccc4o2)C3)o1 (stereo not shown) [Example 68, (Sa)—N-[6-(5-chloro-1,3-benzoxazol-2-yl)spiro[3.3]heptan-2-yl]-5-(propanoylsulfamoyl)furan-2-carboxamide, or (Ra)—N-[6-(5-chloro-1,3-benzoxazol-2-yl)spiro[3.3]heptan-2-yl]-5-(propanoylsulfamoyl)furan-2-carboxamide] |  |  | > 100 | 371 | 626 |  |  | 
N=S(=O)(c1ccc(C(=O)NC2CC3(C2)CC(c2nc4cc(Cl)ccc4o2)C3)o1)C1CC1 (single isomer, unassigned) [Example 53-b, N-[6-(5-chloro-1,3-benzoxazol-2-yl)spiro[3.3]heptan-2-yl]-5-(cyclopropylsulfonimidoyl)furan-2-carboxamide] | 4650 | 6830 | > 10 |  |  |  |  | 
N=S(=O)(c1ccc(C(=O)NC2CC3(C2)CC(c2nc4cc(Cl)ccc4o2)C3)o1)C1CC1 (single isomer, unassigned) [Example 53-d, N-[6-(5-chloro-1,3-benzoxazol-2-yl)spiro[3.3]heptan-2-yl]-5-(cyclopropylsulfonimidoyl)furan-2-carboxamide] | 1340 | 1120 | 92.8 |  |  |  |  | 
CS(=N)(=O)c1ccc(C(=O)NC2CC3(C2)CC(c2nc4cc(Cl)ccc4o2)C3)o1 (single isomer, unassigned) [Example 52-b, N-[6-(5-chloro-1,3-benzoxazol-2-yl)spiro[3.3]heptan-2-yl]-5-(methylsulfonimidoyl)furan-2-carboxamide] | 898 | 939 | > 100 |  |  |  |  | 
O=C(NC1CC2(C1)CC(c1nc3cc(Cl)ccc3o1)C2)c1ccc([S+]([O-])CC2CC2)o1 (single isomer, unassigned) [Example 19-c, N-[6-(5-chloro-1,3-benzoxazol-2-yl)spiro[3.3]heptan-2-yl]-5-(cyclopropylmethylsulfinyl)furan-2-carboxamide] | 1950 | 2420 | > 10 |  |  |  |  | 
O=C(NC1CC2(C1)CC(c1nc3cc(Cl)ccc3o1)C2)c1ccc([S+]([O-])CC2CC2)o1 (single isomer, unassigned) [Example 19-b, N-[6-(5-chloro-1,3-benzoxazol-2-yl)spiro[3.3]heptan-2-yl]-5-(cyclopropylmethylsulfinyl)furan-2-carboxamide] | 53 | 71 | > 10 |  |  |  |  | 
O=C(NC1CC2(C1)CC(c1nc3cc(Cl)ccc3o1)C2)c1ccc(S(=O)(=O)CC2CN(C(=O)OCc3ccccc3)C2)o1 (stereo not shown) [Example 26, benzyl 3-[[5-[[6-(5-chloro-1,3-benzoxazol-2-yl)spiro[3.3]heptan-2-yl]carbamoyl]-2-furyl]sulfonylmethyl]azetidine-1-carboxylate] |  |  |  |  |  | 329 | 365 | > 100
O=C(NC1CC2(C1)CC(c1nc3cc(Cl)ccc3o1)C2)c1cc(Br)co1 (stereo not shown) [Example 4, 4-bromo-N-[6-(5-chloro-1,3-benzoxazol-2-yl)spiro[3.3]heptan-2-yl]furan-2-carboxamide] |  |  |  |  |  | 2940 | 5570 | 56
CS(=O)(=O)Cc1ccc(C(=O)NC2CC3(C2)CC(c2nc4cc(Cl)ccc4o2)C3)o1 (stereo not shown) [Example 30, N-[6-(5-chloro-1,3-benzoxazol-2-yl)spiro[3.3]heptan-2-yl]-5-(methylsulfonylmethyl)furan-2-carboxamide] |  |  |  |  |  | 2170 | 3970 | > 100
O=C(NC1CC2(C1)CC(c1nc3ccc(Cl)cc3o1)C2)c1ccc(C(F)(F)F)o1 (stereo not shown) [Example 46, N-[6-(6-chloro-1,3-benzoxazol-2-yl)spiro[3.3]heptan-2-yl]-5-(trifluoromethyl)furan-2-carboxamide] |  |  |  |  |  | 2810 | 5830 | 89.8
CC(C)CS(=N)(=O)c1ccc(C(=O)NC2CC3(C2)CC(c2nc4cc(Cl)ccc4o2)C3)o1 (stereo not shown) [Example 55, N-[6-(5-chloro-1,3-benzoxazol-2-yl)spiro[3.3]heptan-2-yl]-5-(isobutylsulfonimidoyl)furan-2-carboxamide] |  |  |  |  |  | 988 | 802 | 83.3
O=C(NC1CC2(C1)CC(c1nc3cc(Cl)ccc3o1)C2)c1ccc(S(=O)(=O)CC2CCC2)o1 (stereo not shown) [Example 23, N-[6-(5-chloro-1,3-benzoxazol-2-yl)spiro[3.3]heptan-2-yl]-5-(cyclobutylmethylsulfonyl)furan-2-carboxamide] |  |  |  |  |  | 883 | 321 | > 100
O=C(NC1CC2(C1)CC(c1nc3cc(Cl)ccc3o1)C2)c1ccc(C(F)(F)F)o1 (stereo not shown) [Example 1, N-[6-(5-chloro-1,3-benzoxazol-2-yl)spiro[3.3]heptan-2-yl]-5-(trifluoromethyl)furan-2-carboxamide] |  |  |  |  |  | 2290 | 3630 | 96.8
O=C(NC1CC2(C1)CC(c1nc3cc(Cl)ccc3o1)C2)c1ccc(S2(=O)=NCCCC2)o1 (stereo not shown) [Example 62, N-[6-(5-chloro-1,3-benzoxazol-2-yl)spiro[3.3]heptan-2-yl]-5-(1-oxo-1lambda6-thia-2-azacyclohexen-1-yl)furan-2-carboxamide] |  |  |  |  |  | 4850 | 5010 | > 100
COC(=O)CCC(=O)NS(=O)(=O)c1ccc(C(=O)N[C@H]2CC3(C2)C[C@H](c2nc4cc(Cl)ccc4o2)C3)o1 (single isomer, unassigned) [Example 75, (Sa)-methyl 4-[[5-[[6-(5-chloro-1,3-benzoxazol-2-yl)spiro[3.3]heptan-2-yl]carbamoyl]-2-furyl]sulfonylamino]-4-oxo-butanoate, or (Ra)-methyl 4-[[5-[[6-(5-chloro-1,3-benzoxazol-2-yl)spiro[3.3]heptan-2-yl]carbamoyl]-2-furyl]sulfonylamino]-4-oxo-butanoate] |  |  |  |  |  | 1690 | 2490 | > 10
O=C(NC1CC2(C1)CC(c1nc3cc(Cl)ccc3o1)C2)c1ccc(S(=O)(=O)NC(=O)C2COC2)o1 (stereo not shown) [Example 86, N-[6-(5-chloro-1,3-benzoxazol-2-yl)spiro[3.3]heptan-2-yl]-5-(oxetane-3-carbonylsulfamoyl)furan-2-carboxamide] |  |  |  |  |  | 2190 | 2990 | > 10
